Measurements taken from US20050042283A1, “Histamine and CCK2/gastrin receptor blockade in the treatment of acid-peptic disease and cancer” (UNIVERSITY OF MASSACHUSETTS, priority 2003, published 2005).

Assays:
[1] = test system: H. felis-infected INS-GAS mice; test: Gastric mucosa histological evaluation and scoring; assay type: in vivo; conditions: for Corpus histological score: Atrophy / Corpus histological score: Dysplasia / Corpus histological score: Hyperplasia / Corpus histological score: Inflammation: scale 0 to 4, mean ± SD
From the text: (§1) The insulin-gastrin (INS-GAS) transgenic mice (FVB/N background) have been described previously (Wang, T. C. et al., 2000; Wang T. C. et al., 1993) and were free of specific pathogens. Animals were housed in microisolator, solid-bottomed polycarbonate cages, fed a commercially prepared pelleted diet, and given water ad libitum. One hundred twenty four (124) male INS-GAS mice at 2 or 3 months of age were inoculated with Helicobacter felis (ATCC 49179) as previously described (Wang, T. C. et al., 2000). Infection status was confirmed at 14 weeks and 26 weeks post inoculation by enzyme-linked immunosorbent assay (ELISA) to measure immunoglobulin IgG antibody to H. felis, and by quantitative real-time PCR assays of gastric corpus tissue at necropsy as described below. All experiments were approved by the Institutional Animal Care and Use Committee of University of Massachusetts Medical School.
Mice in group III were treated orally with the histamine H2 receptor antagonist loxtidine (in drinking water) at a dose of 0.5 g/L, while group IV mice received both drugs. For the 3 months drug study of inhibitory effects on maximal acid secretion, gastric atrophy, hyperplasia and dysplasia, 8 mice were prepared for each group. For the 6 months drug study of inhibitory effects on gastric carcinogenesis, 17 mice were prepared for each group.
The proton pump inhibitor omeprazole was purchased from Sigma (St. Louis Mo.) and dissolved in dimethylsulfoxide (DMSO)/PEG300, a 1:1 mixture at the concentration of 40 mg/ml, and injected intraperitoneally daily at the dose of […] (=350 micromole/kg) for 3 months. Twenty four (24) mice were divided into four groups. Mice in group A were controls treated with vehicle only, whereas group B mice were treated with omeprazole alone. Group C and D mice were treated with combination of omeprazole and YF476 or loxtidine, respectively.
(§2) At necropsy, linear strips extending from the squamocolumnar junction through the proximal duodenum were fixed in 10% neutral-buffered formalin, paraffin-embedded, cut at 5 microns, and stained with hematoxylin and eosin. Indices of injury in the gastric cardia/corpus and antrum were scored on an ordinal scale from 0 to 4 in increments of 0.5 by a single veterinary pathologist (A.B.R.) blinded to treatment groups. Paraffin-embedded sections were also stained with the Warthin-Starry silver staining method for detection of H.felis as previously described (Fox, J. G. et al., 2003).

Helicobacter felis = test: H. felis infection status (Warthin-Starry staining, IgG ELISA, real-time PCR); assay type: in vivo; conditions: quantitative real-time PCR; n=6
From the text: as §1, with “All experiments were approved by the Institutional Animal Care and Use Committee of University of Massachusetts Medical School.” left out
as §2, with “Paraffin-embedded sections were also stained with the Warthin-Starry silver staining method for detection of H.felis as previously described (Fox, J. G. et al., 2003).” left out
Plasma gastrin levels (COOH-terminally amidated gastrin) were determined by radioimmunoassay using rabbit antiserum L2 that reacts similarly with G17 and […]. […]

[2] = test system: enterochromaffin-like (ECL) cell; test: Gastric histology of loxtidine-treated South African rat; assay type: in vivo, Mastomys (African multimammate rat); conditions: treated for 16 weeks
From the text: FIG. 2: Characteristics of loxtidine.

ECL cell = conditions: cited from earlier work

In the case of “1-methyl-5-((3-(3-(1-piperidinylmethyl)phenoxy)propyl)amino)-1H-1,2,4-triazole-3-ethanol [Loxtidine]”, the “Histological finding: gastric atrophy, hyperplasia, dysplasia” value (“Histological finding: gastric atrophy” for short) ([1]; 3 months treatment, hematoxylin and eosin) is reported as “partially blocked”, the “Histological finding: gastric atrophy” value ([1]; 3 months treatment, hematoxylin and eosin, listed as loxtidine) is reported as “partial inhibition of gastric atrophy and foveolar hyperplasia” and the “Histological finding: gastric atrophy” value ([1]; 3 months treatment, hematoxylin and eosin, listed as loxtidine alone) is reported as “slight inhibition of Helicobacter-mediated gastric atrophy”. The “Corpus histological score: Atrophy” value ([1]; 3 months treatment, n = 4) was 1.83 ± 0.29, the “Corpus histological score: Dysplasia” value ([1]; 3 months treatment, n = 4) was 1.00 ± 0.50 and the “Corpus histological score: Hyperplasia” value ([1]; 3 months treatment, n = 4) was 1.33 ± 0.58. For the same substance, the “Corpus histological score: Inflammation” value ([1]; 3 months treatment, n = 4) was 1.83 ± 0.29, the “Histological finding: gastric neoplasia / carcinogenesis” value ([1]; 6 months treatment, hematoxylin and eosin) was “partial inhibition of progression to neoplasia” and the “Corpus histological score: Atrophy” value ([1]; 6 months treatment, n = 5) was 2.67 ± 0.61. For the same substance, the “Corpus histological score: Dysplasia” value ([1]; 6 months treatment, n = 5) was 2.17 ± 1.29a, the “Corpus histological score: Hyperplasia” value ([1]; 6 months treatment, n = 5) was 2.42 ± 1.07a and the “Corpus histological score: Inflammation” value ([1]; 6 months treatment, n = 5) was 2.33 ± 1.17. For the same substance, the “H. felis DNA copy numbers per gastric corpus DNA (copy/μg) compared with non drug treated mice” value (Helicobacter felis) was “no significant difference”, the Gastric histology finding [2] was “enterochromaffin-like (ECL) cell neoplasia” and the “Tumor induction in rats” value (ECL cell; rat, in vivo) was “induction of ECLomas”. For the same substance, the “Duration of administration after which ECL cell hyperplasia was seen” value (ECL cell; rats, Poynter et al.) was 39 days.
